Laboratory results: ChEMBL document CHEMBL1926529, “Synthesis of novel benzofurocoumarin analogues and their anti-proliferative effect on human cancer cell lines” (2012)
Activity calls are given as the source filed them. The rule behind the calls is not given here.

How the values were obtained:
MDA-MB-231 [1] = test: Growth inhibition of human MDA-MB-231 cells assessed as cell viability after 48 hrs by MTS assay; type: functional; settings: MDA-MB-231, 48 h
HeLa [2] = test: Growth inhibition of human HeLa cells assessed as cell viability after 48 hrs by MTS assay; type: functional
TCC-SUP [3] = test: Growth inhibition of human TCCSUP cells assessed as cell viability after 48 hrs by MTS assay; type: functional
MDA-MB-231 [4] = test: Growth inhibition of human MDA-MB-231 cells assessed as cell viability at 0.5 uM after 48 hrs by MTS assay; type: functional, cell-based
HeLa [5] = test: Growth inhibition of human HeLa cells assessed as cell viability at 0.5 uM after 48 hrs by MTS assay; type: functional, cell-based
TCC-SUP [6] = test: Growth inhibition of human TCCSUP cells assessed as cell viability at 0.5 uM after 48 hrs by MTS assay; type: functional, cell-based

Compound | GI50 (MDA-MB-231 [1]) [nM] | GI50 (HeLa [2]) [nM] | GI50 (TCC-SUP [3]) [nM] | growth inhibition (GI) (MDA-MB-231 [4]) | growth inhibition (GI) (HeLa [5]) | growth inhibition (GI) (TCC-SUP [6])
O=C(O)c1cc2c(ccc3oc4ccccc4c32)oc1=O | 97 | 3 | 50 | Active | Active | Active
CCOC(=O)c1cc2c(ccc3oc4ccccc4c32)oc1=O | 83 | 2 | 12 | Active | Active | Active
O=c1ccc2c(ccc3oc4ccccc4c32)o1 | 467 | 5 | 31 | Active | Active | Active

More lines, in order of falling GI50 (MDA-MB-231 [1]), values ahead:

GI50 (MDA-MB-231 [1]) [nM] | GI50 (HeLa [2]) [nM] | Compound | GI50 (TCC-SUP [3]) [nM] | growth inhibition (GI) (MDA-MB-231 [4]) | growth inhibition (GI) (HeLa [5]) | growth inhibition (GI) (TCC-SUP [6])
205 | 43 | CCOC(=O)C(CC(C)C)NC(=O)c1cc2c(ccc3oc4ccccc4c32)oc1=O (stereo not given) | 122 | Active | Active | Active
106 | 53 | COC(=O)C(C)NC(=O)c1cc2c(ccc3oc4ccccc4c32)oc1=O (stereo not given) | 159 | Active | Active | Active
